Data: paper PMC11428108 (Frontiers in Molecular Neuroscience, 2024)
Entries after “also recorded” stand apart in the source; their conditions may differ.

Experiments:
male C57BL/6J mice = test: Intracranial self-stimulation (ICSS) thresholds in mice with saline or nicotine osmotic minipumps; assay type: in vivo; settings: SR9883 10 mg kg^−1 IP
Source text: Mice were anesthetized with a mixture of isoflurane (1–3%) and oxygen vapor then positioned in a stereotaxic frame in the flat-skull position (Kopf Instruments) ([Fowler et al., 2013]; [Johnson et al., 2008]). A stainless-steel bipolar electrode (Plastics One) was implanted into the lateral hypothalamus according to the following stereotaxic coordinates: Anterior/Posterior: −0.5 mm from bregma; […] Dorsal/Ventral: −5.0 mm from brain surface ([Fowler et al., 2013]; [Johnson et al., 2008]; [Paxinos and Franklin, 2001]). Mice were permitted 72 h to recover from surgery prior to training in the ICSS procedure. Mice were permitted to respond for intracranial electrical stimulation according to a modification of the discrete-trial current-threshold procedure developed by Kornetsky and colleagues ([Gill et al., 2004]), as previously described ([Fowler et al., 2013]; [Johnson et al., 2008]). […] The frequency of the stimulation was selected for each mouse so that current-intensity thresholds were within 25 to 400 μA, permitting threshold elevations and reductions to be reliably detected. This frequency for each mouse was held constant throughout the experiment. […] The time between the onset of the non-contingent stimulus and a positive response was recorded as the response latency. […] Effects of intraperitoneal injections of SR9883 on ICSS thresholds were assessed >7 days after minipump implantation. Concentration-response curves of SR9883 actions in nAChR-expressing HEK cells and oocytes were fitted to the Hill equation using a nonlinear least squares curve fit method and efficacy and potency values were calculated as previously described ([Wang et al., 2015]). […] For the ICSS threshold experiment, percentages of baseline reward threshold scores were calculated by expressing the absolute threshold scores as a percentage of the scores obtained during baseline. […] Response latency data were analyzed in the same manner as the threshold data. […] Effects of SR9883 on responding for food pellets in rats was analyzed by a two-tailed paired t test. […]

(α4)2(β2)2α4 nAChRs = molecular target: T1, (α4)2(β2)2α4 nAChRs (Homo sapiens, UniProt P17787+P43681); test: nAChR-mediated currents in oocytes expressing (α4)2(β2)2α4 nAChRs (unpublished observations); assay type: cell-based; settings: pure stoichiometry
T1 construct: expressed in transfected cells
Experimental: (§1) Concentration-response curves of SR9883 actions in nAChR-expressing HEK cells and oocytes were fitted to the Hill equation using a nonlinear least squares curve fit method and efficacy and potency values were calculated as previously described ([Wang et al., 2015]). Plasma and brain levels of SR9983 after oral administration were compared using a two-tailed paired t test. […] For the ICSS threshold experiment, percentages of baseline reward threshold scores were calculated by expressing the absolute threshold scores as a percentage of the scores obtained during baseline. The baseline values were the mean thresholds on the three sessions prior to drug injections. Response latency data were analyzed in the same manner as the threshold data. […] Effects of SR9883 on responding for food pellets in rats was analyzed by a two-tailed paired t test. […] Significant main or interaction effects in ANOVAs were followed by Bonferroni or Newman–Keuls post-hoc tests as appropriate. All statistical analyses were performed using GraphPad Prism software with α set to 0.05.

[1] = molecular target: T2, human (α4)2(β2)2α5 nAChRs (Homo sapiens, UniProt P17787+P30532+P43681); test: FLEXstation membrane potential assay in HEK cells stably expressing (α4)2(β2)2α5 nAChRs; assay type: cell-based
T2 construct: expressed in transfected cells
Source text: (§2) Human embryonic kidney (HEK) cell lines stably expressing human (α4)2(β2)2β2/α4 (α4β2*) nAChRs, (α4)2(β2)2α5 nAChRs, (α4)2(β2)2β3 nAChRs, (α3)2(β4)2α3/β4 (α3β4*) nAChRs, (α3)2(β2)2α3/β2 (α3β2*) nAChRs, (α3)2(β4)2α5 nAChRs, or (α3)2(β2)2α5 nAChRs were maintained as described previously ([Wang et al., 2015]; [Kuryatov et al., 2005]; [Caligiuri et al., 2022]). The FLEXstation bench top scanning fluorometer from Molecular Devices was used to assay nAChR function in these cells, according to published protocols ([Wang et al., 2015]; [Kuryatov et al., 2005]). The membrane potential kit (Molecular Devices) was used according to the manufacturer’s protocols. Serial dilutions of SR9883 were manually added to the assay plate 15 min prior to recording. […] Compound dilutions were prepared in V-shaped 96-well plates (Fisher Scientific Co.) and added to cell culture wells at a rate of 20 μL s^−1 during recording. Cells were incubated at 29°C for 6–20 h prior to assays to upregulate nAChRs ([Wang et al., 2015]; [Kuryatov et al., 2005]). Data points were averaged from 3 to 4 responses from separate wells. Potency and efficacy were calculated using the Hill equation as described previously ([Wang et al., 2015]).
as §1

[2] = molecular target: T3, human (α4)2(β2)2β3 nAChRs (Homo sapiens, UniProt P17787+P43681+Q05901); test: FLEXstation membrane potential assay in HEK cells stably expressing (α4)2(β2)2β3 nAChRs; assay type: cell-based; settings: ±SEM
T3 construct: expressed in transfected cells
Source text: as §2
Concentration-response curves of SR9883 actions in nAChR-expressing HEK cells and oocytes were fitted to the Hill equation using a nonlinear least squares curve fit method and efficacy and potency values were calculated as previously described ([Wang et al., 2015]). Plasma and brain levels of SR9983 after oral administration were compared using a two-tailed paired t test. […] For the ICSS threshold experiment, percentages of baseline reward threshold scores were calculated by expressing the absolute threshold scores as a percentage of the scores obtained during baseline. The baseline values were the mean thresholds on the three sessions prior to drug injections. Response latency data were analyzed in the same manner as the threshold data. […] Effects of SR9883 on responding for food pellets in rats was analyzed by a two-tailed paired t test. […]

[3] = molecular target: T4, human (α3)2(β4)2α5 nAChRs (Homo sapiens, UniProt P30532+P30926+P32297); test: FLEXstation membrane potential assay in HEK cells stably expressing (α3)2(β4)2α5 nAChRs; assay type: cell-based; settings: SR9883 0.0005–10 μM
T4 construct: expressed in transfected cells
Source text: Human embryonic kidney (HEK) cell lines stably expressing human (α4)2(β2)2β2/α4 (α4β2*) nAChRs, (α4)2(β2)2α5 nAChRs, (α4)2(β2)2β3 nAChRs, (α3)2(β4)2α3/β4 (α3β4*) nAChRs, (α3)2(β2)2α3/β2 (α3β2*) nAChRs, (α3)2(β4)2α5 nAChRs, or (α3)2(β2)2α5 nAChRs were maintained as described previously ([Wang et al., 2015]; [Kuryatov et al., 2005]; [Caligiuri et al., 2022]). The FLEXstation bench top scanning fluorometer from Molecular Devices was used to assay nAChR function in these cells, according to published protocols ([Wang et al., 2015]; [Kuryatov et al., 2005]). The membrane potential kit (Molecular Devices) was used according to the manufacturer’s protocols. Serial dilutions of SR9883 were manually added to the assay plate 15 min prior to recording. […] Potency and efficacy were calculated using the Hill equation as described previously ([Wang et al., 2015]).
Concentration-response curves of SR9883 actions in nAChR-expressing HEK cells and oocytes were fitted to the Hill equation using a nonlinear least squares curve fit method and efficacy and potency values were calculated as previously described ([Wang et al., 2015]). […] For the ICSS threshold experiment, percentages of baseline reward threshold scores were calculated by expressing the absolute threshold scores as a percentage of the scores obtained during baseline. […] Response latency data were analyzed in the same manner as the threshold data. […]

T3 sequence (P43681 29-627 limits assumed): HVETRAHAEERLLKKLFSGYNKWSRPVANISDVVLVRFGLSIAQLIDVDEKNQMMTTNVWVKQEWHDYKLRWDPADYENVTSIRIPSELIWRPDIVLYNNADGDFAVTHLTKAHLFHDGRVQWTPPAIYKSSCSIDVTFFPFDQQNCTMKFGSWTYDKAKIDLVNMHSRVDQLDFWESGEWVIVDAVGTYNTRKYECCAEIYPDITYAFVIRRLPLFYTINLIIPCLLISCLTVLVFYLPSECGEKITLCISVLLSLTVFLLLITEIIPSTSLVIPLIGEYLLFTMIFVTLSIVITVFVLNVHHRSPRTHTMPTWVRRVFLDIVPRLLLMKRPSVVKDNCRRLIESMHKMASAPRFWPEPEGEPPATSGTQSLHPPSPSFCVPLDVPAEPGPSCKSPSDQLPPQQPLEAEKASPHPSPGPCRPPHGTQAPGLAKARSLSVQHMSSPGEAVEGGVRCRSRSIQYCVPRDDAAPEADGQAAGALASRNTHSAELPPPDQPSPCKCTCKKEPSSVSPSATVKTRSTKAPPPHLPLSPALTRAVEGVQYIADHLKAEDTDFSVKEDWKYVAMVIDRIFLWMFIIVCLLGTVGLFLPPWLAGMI
T3 sequence (P17787 26-502): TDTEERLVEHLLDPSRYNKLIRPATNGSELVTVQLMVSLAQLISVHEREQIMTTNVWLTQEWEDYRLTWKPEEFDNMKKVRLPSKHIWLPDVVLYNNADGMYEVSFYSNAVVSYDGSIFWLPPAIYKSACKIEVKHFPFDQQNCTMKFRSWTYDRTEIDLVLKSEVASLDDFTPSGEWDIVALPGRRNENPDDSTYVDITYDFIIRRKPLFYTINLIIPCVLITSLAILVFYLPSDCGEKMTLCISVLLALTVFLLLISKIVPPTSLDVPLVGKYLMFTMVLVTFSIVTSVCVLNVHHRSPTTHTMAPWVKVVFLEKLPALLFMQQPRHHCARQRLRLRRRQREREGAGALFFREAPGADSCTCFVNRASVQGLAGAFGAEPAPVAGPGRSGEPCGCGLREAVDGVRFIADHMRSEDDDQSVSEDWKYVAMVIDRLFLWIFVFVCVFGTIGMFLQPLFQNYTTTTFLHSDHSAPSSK
T3 sequence (Q05901 25-458 limits assumed): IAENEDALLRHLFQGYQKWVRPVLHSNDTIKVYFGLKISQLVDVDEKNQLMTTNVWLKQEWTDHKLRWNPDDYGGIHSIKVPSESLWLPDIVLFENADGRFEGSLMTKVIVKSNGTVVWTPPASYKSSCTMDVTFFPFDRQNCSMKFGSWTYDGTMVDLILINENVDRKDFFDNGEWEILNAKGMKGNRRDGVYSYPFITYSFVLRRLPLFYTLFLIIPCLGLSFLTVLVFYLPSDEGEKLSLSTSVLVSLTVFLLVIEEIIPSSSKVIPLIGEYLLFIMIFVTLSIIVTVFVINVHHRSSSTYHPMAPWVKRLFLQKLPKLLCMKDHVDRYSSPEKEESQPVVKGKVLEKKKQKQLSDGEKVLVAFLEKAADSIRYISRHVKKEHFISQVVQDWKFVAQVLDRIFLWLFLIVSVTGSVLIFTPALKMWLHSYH
T2 sequence (P43681 29-627 limits assumed): as the sequence (P43681 29-627 limits assumed) above
T2 sequence (P17787 26-502): as the sequence (P17787 26-502) above
T2 sequence (P30532 23-468): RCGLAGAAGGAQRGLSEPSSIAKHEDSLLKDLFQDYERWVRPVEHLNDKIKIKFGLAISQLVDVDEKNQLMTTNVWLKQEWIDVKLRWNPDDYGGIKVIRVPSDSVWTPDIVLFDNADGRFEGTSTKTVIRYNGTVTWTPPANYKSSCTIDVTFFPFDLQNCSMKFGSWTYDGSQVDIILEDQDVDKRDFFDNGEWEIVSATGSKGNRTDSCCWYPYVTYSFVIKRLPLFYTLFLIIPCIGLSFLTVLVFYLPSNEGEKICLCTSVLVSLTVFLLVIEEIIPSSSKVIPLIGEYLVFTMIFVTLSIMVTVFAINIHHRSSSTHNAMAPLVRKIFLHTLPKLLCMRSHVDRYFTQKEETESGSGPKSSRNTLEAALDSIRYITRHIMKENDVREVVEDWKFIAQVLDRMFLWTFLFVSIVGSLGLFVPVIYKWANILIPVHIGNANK
T4 sequence (P32297 32-505): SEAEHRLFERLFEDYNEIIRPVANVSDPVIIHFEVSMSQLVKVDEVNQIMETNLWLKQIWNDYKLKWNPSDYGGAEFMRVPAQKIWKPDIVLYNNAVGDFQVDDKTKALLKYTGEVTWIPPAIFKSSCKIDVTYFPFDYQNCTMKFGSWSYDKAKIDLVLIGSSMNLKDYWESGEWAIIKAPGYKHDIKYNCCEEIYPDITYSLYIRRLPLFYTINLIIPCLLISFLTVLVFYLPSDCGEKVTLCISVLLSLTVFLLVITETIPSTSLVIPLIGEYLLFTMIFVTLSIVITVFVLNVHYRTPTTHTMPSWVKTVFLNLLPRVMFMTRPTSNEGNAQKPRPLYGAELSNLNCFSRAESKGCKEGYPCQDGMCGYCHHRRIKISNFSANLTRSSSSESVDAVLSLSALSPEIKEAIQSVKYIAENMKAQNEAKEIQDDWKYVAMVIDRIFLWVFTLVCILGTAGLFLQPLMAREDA
T4 sequence (P30926 22-498): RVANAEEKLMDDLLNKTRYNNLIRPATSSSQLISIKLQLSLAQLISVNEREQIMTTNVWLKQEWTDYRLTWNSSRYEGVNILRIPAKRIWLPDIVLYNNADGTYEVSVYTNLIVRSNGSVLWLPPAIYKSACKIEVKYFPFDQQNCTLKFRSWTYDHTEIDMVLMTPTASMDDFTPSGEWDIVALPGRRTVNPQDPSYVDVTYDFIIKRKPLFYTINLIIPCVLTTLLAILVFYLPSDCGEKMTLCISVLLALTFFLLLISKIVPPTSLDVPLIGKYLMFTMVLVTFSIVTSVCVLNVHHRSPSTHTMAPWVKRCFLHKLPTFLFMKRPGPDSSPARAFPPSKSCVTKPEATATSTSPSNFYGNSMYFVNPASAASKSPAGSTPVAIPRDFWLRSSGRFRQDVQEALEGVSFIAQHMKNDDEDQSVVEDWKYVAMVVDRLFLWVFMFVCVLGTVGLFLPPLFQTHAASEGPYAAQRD
T4 sequence (P30532 23-468): as the sequence (P30532 23-468) above
T1 sequence (P43681 29-627 limits assumed): as the sequence (P43681 29-627 limits assumed) above
T1 sequence (P17787 26-502): as the sequence (P17787 26-502) above

- nAChR-mediated currents ((α4)2(β2)2α4 nAChRs): enhanced nAChR-mediated currents
- Effect on maximum response to nicotine ([1]; SR9883 10 μM, nicotine 0.001–50 μM): no effect
- EC50 ([1]; SR9883 0.0005–10 μM on response to EC20-30 nicotine, HEK cells, ±SEM): 321 ± 98.2 nM
- nHill ([1]; SR9883 0.0005–10 μM on response to EC20-30 nicotine, ±SEM): 0.8620 ± 0.1564
- Efficacy ([1]; response to EC20-30 nicotine with SR9883 relative to nicotine alone, ±SEM): 146.18 ± 10.93%
- EC50 ([2]; SR9883 0.0005–10 μM on response to EC20-30 nicotine, HEK cells): 224 ± 149 nM
- nHill ([2]; SR9883 0.0005–10 μM on response to EC20-30 nicotine): 0.8567 ± 0.3792
- Efficacy ([2]; response to EC20-30 nicotine with SR9883 relative to nicotine alone): 96.44 ± 15.93%
- EC50 (enhancement of response to EC20-30 nicotine) [3]: no effect; also recorded: No enhancement
Structure (SMILES): N#Cc1cccc(-n2nnc(-c3cccnc3)n2)c1 [SR9883, 3-(5-(pyridin-3-yl)-2H-tetrazol-2-yl)benzonitrile]
- ICSS response latencies (male C57BL/6J mice; minipumps delivering either saline or nicotine): had no effect
- ICSS thresholds (male C57BL/6J mice; nicotine-delivering osmotic minipumps (24 mg kg^−1 per day), p = 0.0278 vs vehicle): elevated
- ICSS thresholds (male C57BL/6J mice; saline-delivering osmotic minipumps): had no effect
